Measured values from PubChem BioAssay AID1996.
Converted amounts (≈) assume the structure as drawn.

Details: buffer; pH 7.4; 200.0 µM

SMILES | solubility kinetic
Cc1cc(Br)cc2c1N(C)C(=O)C2(c1ccc(O)cc1)c1ccc(O)cc1 | 7.4 µg/mL (≈ 17.4 µM)
CC(C(=O)NC1CCCC1)N1CCN(Cc2ccccc2)CC1 (stereo not given) | > 47.3 µg/mL
CC1CC(=O)Nc2ccccc2N1S(=O)(=O)c1cccs1 (stereo not given) | 17 µg/mL (≈ 52.7 µM)
CC(C)n1c(N2CCCC2)nc2c1c(=O)[nH]c(=O)n2C | > 41.6 µg/mL
O=C(NC1CC1)c1cccc(S(=O)(=O)N2CCOCC2)c1 | > 46.6 µg/mL
O=C(NN1CCOCC1)c1ccco1 | > 29.4 µg/mL
Cc1ccc(-n2c(/C=C/c3ccccn3)nc3ccccc3c2=O)cc1 | 0.6 µg/mL (≈ 1.77 µM)
Cc1ccc(C)c(NC(=O)C(c2ccccc2)N2CCN(CC(=O)N3CCOCC3)CC2)c1 (stereo not given) | > 67.6 µg/mL
O=[N+]([O-])c1ccc(N2CCN(C(=S)Nc3ccc(F)cc3)CC2)cc1 | 0.4 µg/mL (≈ 1.11 µM)
CC(=O)c1c(C)n(-c2ccc(C)cc2)c2ccc(O)cc12 | < 0.6 µg/mL
CCc1cc2c(NC3CCCC3)ncnc2s1.Cl | 30.8 µg/mL
Cc1ccc(NC(=O)C2CCN(C(=O)c3ccco3)CC2)cc1 | > 46.9 µg/mL
Cc1ccc(S(=O)(=O)N2CCCC2)s1 | 32.3 µg/mL (≈ 140 µM)
O=C(Cc1ccc(Cl)cc1)NCC(=O)N1CCCCCC1 | > 46.3 µg/mL
CC(C)C(=O)NC(CC(=O)O)c1ccccc1 (stereo not given) | > 35.3 µg/mL
O=C(CN1CCN(c2ccc(F)cc2)CC1)Nc1ccccc1 | > 47 µg/mL
O=C(OCCN1CCOCC1)c1ccc(O)cc1 | > 37.7 µg/mL

SMILES | solubility kinetic
C=CC[N+]1(CC=C)CCOCC1.[Br-] | > 37.2 µg/mL
O=C(/C=C/c1ccco1)NC(=S)N1CCCCC1 | 27.4 µg/mL (≈ 104 µM)
CCNC(=O)C1CCCN(c2nc(C)cc(C)n2)C1 (stereo not given) | > 39.4 µg/mL
O=C1NCCN1Cc1ccc(Cl)cc1 | 26.3 µg/mL (≈ 125 µM)
O=C(c1ccc([N+](=O)[O-])o1)N1CCN(Cc2ccccc2)CC1 | 9.2 µg/mL (≈ 29.2 µM)
O=C(COC(=O)C1CC1)Nc1ccc(S(=O)(=O)N2CCOCC2)cc1 | > 55.3 µg/mL
CC1CCCC(C)N1C(=O)COC(=O)c1cccs1 (stereo not given) | > 42.2 µg/mL
CC(C)c1ccc(NC2CCCN(C(=O)c3ccco3)C2)cc1 (stereo not given) | > 46.9 µg/mL
O=C1CN(S(=O)(=O)c2ccc([N+](=O)[O-])cc2)CC(=O)N1 | > 44.9 µg/mL
Cc1ccc(NS(=O)(=O)c2ccc(NC(=O)C3CC3)cc2)cc1C | 6.9 µg/mL (≈ 20 µM)
O=C(Nc1ncc([N+](=O)[O-])s1)c1ccccc1Br | 41.1 µg/mL (≈ 125 µM)
O=C(CN1CCN(Cc2ccccc2)CC1)Nc1cccc(Cl)c1 | > 51.6 µg/mL
O=C(COC(=O)COc1ccccc1)NC1CCCC1 | > 41.6 µg/mL
COC(=O)c1cccc(NC(=O)c2cccc([N+](=O)[O-])c2)c1 | 3.8 µg/mL (≈ 12.7 µM)
CN1CCN(c2ccc(CNS(=O)(=O)c3ccsc3)cc2)CC1 | 22.7 µg/mL (≈ 64.6 µM)
CC(=O)N1CCN(c2ccc(NC(=O)c3ccccc3)cc2)CC1 | 40.5 µg/mL (≈ 125 µM)

Now from value to compound:

solubility kinetic | SMILES
1.7 µg/mL (≈ 6 µM) | CCNc1oc(/C=C/c2ccc(OCC)cc2)nc1C#N
> 47.9 µg/mL | COc1ccccc1NC(=O)C(C)OC(=O)Cc1ccsc1 (stereo not given)
> 53.2 µg/mL | O=C(Nc1ccc(S(=O)(=O)Nc2ncccn2)cc1)c1ccccc1
0.4 µg/mL (≈ 1.27 µM) | Cc1cc(C)c2c(N)c(C(=O)Nc3ccccc3F)sc2n1
38.8 µg/mL (≈ 128 µM) | COc1ccc(NC(=S)NCc2ccccc2)c(OC)c1
31.4 µg/mL (≈ 123 µM) | CCCCc1nc2ccc(S(=O)(=O)O)cc2[nH]1
16.7 µg/mL (≈ 54.3 µM) | COc1ccc(CN(C)Cc2c(O)ccc3ccccc23)cc1
< 0.2 µg/mL | Oc1ccccc1-c1nc(NCc2ccccc2)c2ccccc2n1
19 µg/mL (≈ 67.2 µM) | ONC(=Nc1ccccc1Cl)c1c(F)cccc1F
43.4 µg/mL (≈ 149 µM) | c1ccc2[nH]c(CCCCc3nc4ccccc4[nH]3)nc2c1
10 µg/mL (≈ 37.1 µM) | CCNc1nc(NCC)nc(N(CC)C(N)=S)n1
> 40.4 µg/mL | COCCNC(=S)Nc1ccc([N+](=O)[O-])cc1C
7.4 µg/mL (≈ 23.7 µM) | CC(=O)Nc1ccc2nc(NC(=O)c3cccnc3)sc2c1
35.2 µg/mL (≈ 145 µM) | COc1cc(C=O)ccc1OCc1ccncc1
< 0.7 µg/mL | Cc1cc(C(=O)COC(=O)/C=C/c2cccc(F)c2)c(C)n1C
< 0.7 µg/mL | COc1ccc(/C=C/C(=O)OCc2cccc([N+](=O)[O-])c2)cc1
> 55.7 µg/mL | COc1cc2c(cc1OC)CN(C(=O)CCC(=O)c1ccc(F)cc1)CC2
21.7 µg/mL (≈ 79.6 µM) | Cc1cc(C)nc(N(C#N)Cc2ccc(Cl)cc2)n1
29.8 µg/mL (≈ 80.5 µM) | CC1CCCC(C)N1C(=O)COC(=O)/C=C/c1ccc(Br)o1 (stereo not given)
31.3 µg/mL (≈ 107 µM) | N/C(=N\OC(=O)c1cccc2ccccc12)c1ccncc1
> 51.5 µg/mL | CCCc1cc(=O)[nH]c(SCC(=O)N2c3ccccc3CC2C)n1 (stereo not given)
37.6 µg/mL (≈ 146 µM) | Cc1ccc2c(c1)C1(OCCCO1)C(=O)N2CC#N
> 40.9 µg/mL | N#Cc1c(Cl)nsc1NCCN1CCOCC1
7.2 µg/mL (≈ 21.5 µM) | CC(C)Oc1ccc(CNC(=S)Nc2ccccc2)cc1Cl
< 0.1 µg/mL | CN(c1ccccc1)c1nc(N)c([N+](=O)[O-])c(NC2CCCCC2)n1
> 46.4 µg/mL | COc1ccc(CCNC2CCC(c3ccccc3)CC2)cc1 (stereo not given)
1.4 µg/mL (≈ 4.4 µM) | C=CCc1cccc(CNc2ccc(Br)cc2)c1O
